Results as given in ChEMBL document CHEMBL1201862, “PubChem BioAssay data set” (2004).
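Cells were grown in 96-well plates and exposed to each compound for 48 hours at five concentrations; endpoints were interpolated linearly between bracketing concentrations, or set to the highest concentration if not reached. The concentration for 50% growth inhibition is given as GI50.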 Active and inactive are the calls of the source. Rule as the data show it: active = GI50 up to about 1.1 µM and inactive = higher.

Legend:
Test in all cases: NCI tumour cell line growth inhibition, 48 h
ACHN = system: ACHN
CCRF-CEM = system: CCRF-CEM
COLO 205 = system: COLO 205
DU-145 = system: DU-145
HL-60 = system: HL-60
HOP-62 = system: HOP-62
Hs-578T = system: Hs-578T
NCI-H460 = system: NCI-H460
NCI/ADR-RES = system: NCI/ADR-RES
OVCAR-4 = system: OVCAR-4
OVCAR-5 = system: OVCAR-5
PC-3 = system: PC-3
RXF 393 = system: RXF 393
SK-MEL-5 = system: SK-MEL-5
SN12C = system: SN12C
SNB-19 = system: SNB-19
SNB-75 = system: SNB-75
T47D = system: T47D
UACC-257 = system: UACC-257
UO-31 = system: UO-31

Compound	GI50 (ACHN)	GI50 (CCRF-CEM)	GI50 (COLO 205)	GI50 (DU-145)	GI50 (HL-60)	GI50 (HOP-62)	GI50 (Hs-578T)	GI50 (NCI-H460)	GI50 (NCI/ADR-RES)	GI50 (OVCAR-4)	GI50 (OVCAR-5)	GI50 (PC-3)	GI50 (RXF 393)	GI50 (SK-MEL-5)	GI50 (SN12C)	GI50 (SNB-19)	GI50 (SNB-75)	GI50 (T47D)	GI50 (UACC-257)	GI50 (UO-31)
O=C(CC(O)(C(F)(F)F)C(F)(F)F)c1cc(CC(=O)C(O)(C(F)(F)F)C(F)(F)F)cc(CC(=O)C(O)(C(F)(F)F)C(F)(F)F)c1	0.802 µM (active)	> 10 µM (inactive)	1.61 µM (inactive)	1.97 µM (inactive)	> 10 µM (inactive)	1.46 µM (inactive)	2.05 µM (inactive)	0.454 µM (active)	1.85 µM (inactive)	1.77 µM (inactive)	3.01 µM (inactive)	0.78 µM (active)	1.47 µM (inactive)	1.57 µM (inactive)	1.41 µM (inactive)	2.67 µM (inactive)	1.91 µM (inactive)	0.419 µM (active)	1.95 µM (inactive)	1.25 µM (inactive)
COC(=O)/C=C1/OC(c2ccc(Br)cc2)=C(Br)C1=O	7.23 µM (inactive)	1.82 µM (inactive)	1.89 µM (inactive)	12.7 µM (inactive)	2.06 µM (inactive)	7.57 µM (inactive)	8.38 µM (inactive)	14.5 µM (inactive)	9.4 µM (inactive)	5.16 µM (inactive)	6.34 µM (inactive)	6.93 µM (inactive)	4.94 µM (inactive)	7.48 µM (inactive)	6.92 µM (inactive)	10.4 µM (inactive)	7.43 µM (inactive)	5.55 µM (inactive)	13.3 µM (inactive)	11.7 µM (inactive)
COc1ccccc1C1C2=C(COC2=O)OC(C)(C)Oc2cc3c(cc21)OCO3 (stereo not given)	7.91 µM (inactive)	4.06 µM (inactive)	1.04 µM (active)	3.57 µM (inactive)	1.35 µM (inactive)	4.02 µM (inactive)	4.6 µM (inactive)	3.6 µM (inactive)	3.18 µM (inactive)	10.3 µM (inactive)	13.4 µM (inactive)	2.19 µM (inactive)	1.06 µM (active)	3.36 µM (inactive)	5.48 µM (inactive)	3.8 µM (inactive)	3.59 µM (inactive)	5.93 µM (inactive)	6.81 µM (inactive)	10 µM (inactive)
Cc1cc(S(=O)(=O)Nc2nc(Nc3ccccc3)n[nH]2)c(SCC(=O)O)cc1Cl	> 100 µM (inactive)	> 100 µM (inactive)	> 100 µM (inactive)	> 100 µM (inactive)	> 100 µM (inactive)	> 100 µM (inactive)	> 100 µM (inactive)	> 100 µM (inactive)	> 100 µM (inactive)	> 100 µM (inactive)	> 100 µM (inactive)	> 100 µM (inactive)	> 100 µM (inactive)	> 100 µM (inactive)	> 100 µM (inactive)	> 100 µM (inactive)	> 100 µM (inactive)	> 100 µM (inactive)	> 100 µM (inactive)	> 100 µM (inactive)
CCOC(=O)c1c(Sc2ccc([N+](=O)[O-])cc2[N+](=O)[O-])nc2c3ccccc3ccn12	19.3 µM (inactive)	40.7 µM (inactive)	> 100 µM (inactive)	> 100 µM (inactive)	11.5 µM (inactive)	13.1 µM (inactive)	13.8 µM (inactive)	> 55.7 µM (inactive)	> 71.9 µM (inactive)	10.7 µM (inactive)	> 100 µM (inactive)	> 100 µM (inactive)	21 µM (inactive)	80.2 µM (inactive)	99.1 µM (inactive)	> 68.1 µM (inactive)	13.3 µM (inactive)	> 100 µM (inactive)	> 100 µM (inactive)	> 41.9 µM (inactive)
O=C1CCC[C@@H]2NC[C@@H](c3ccc4c(c3)OCO4)[C@H]12	> 25 µM (inactive)	> 25 µM (inactive)	> 25 µM (inactive)	> 25 µM (inactive)	> 25 µM (inactive)	> 25 µM (inactive)	> 25 µM (inactive)	> 25 µM (inactive)	> 25 µM (inactive)	> 25 µM (inactive)	> 25 µM (inactive)	> 25 µM (inactive)	> 25 µM (inactive)	> 25 µM (inactive)	> 25 µM (inactive)	> 25 µM (inactive)	> 25 µM (inactive)	> 25 µM (inactive)	> 25 µM (inactive)	> 25 µM (inactive)
O=C(/C=C/c1ccc(Cl)cc1)c1ccccc(=O)c1O	0.881 µM (active)	0.255 µM (active)	1.23 µM (inactive)	2.61 µM (inactive)	0.516 µM (active)	2.65 µM (inactive)	4.99 µM (inactive)	0.461 µM (active)	0.36 µM (active)	0.673 µM (active)	6.34 µM (inactive)	4.08 µM (inactive)	2.81 µM (inactive)	0.621 µM (active)	0.643 µM (active)	2.72 µM (inactive)	2.86 µM (inactive)	4.36 µM (inactive)	2.49 µM (inactive)	1.51 µM (inactive)
OC1(c2cccs2)c2cccc(Cl)c2C(O)(c2cccs2)c2c(Cl)cccc21 (stereo not given)	> 100 µM (inactive)	93.3 µM (inactive)	> 100 µM (inactive)	> 100 µM (inactive)	> 100 µM (inactive)	57.9 µM (inactive)	9.84 µM (inactive)	> 100 µM (inactive)	63.5 µM (inactive)	> 100 µM (inactive)	> 100 µM (inactive)	99.3 µM (inactive)	> 100 µM (inactive)	> 100 µM (inactive)	93.8 µM (inactive)	33.2 µM (inactive)	47.4 µM (inactive)	> 100 µM (inactive)	> 100 µM (inactive)	> 100 µM (inactive)
CCOC(=O)c1c(O)nc2cccc3c2c1-c1cccnc1S3	28.8 µM (inactive)	24 µM (inactive)	35.9 µM (inactive)	44.6 µM (inactive)	20.3 µM (inactive)	25.5 µM (inactive)	22.4 µM (inactive)	24.4 µM (inactive)	33.1 µM (inactive)	33.1 µM (inactive)	24 µM (inactive)	15.8 µM (inactive)	11 µM (inactive)	11.7 µM (inactive)	39.9 µM (inactive)	33.8 µM (inactive)	21.2 µM (inactive)	9.86 µM (inactive)	37.6 µM (inactive)	23 µM (inactive)
COC(=O)C1=C(C=O)C2C=CC1C2 (stereo not given)	> 67.9 µM (inactive)	25.1 µM (inactive)	46.3 µM (inactive)	> 100 µM (inactive)	21.3 µM (inactive)	> 100 µM (inactive)	> 100 µM (inactive)	> 100 µM (inactive)	> 100 µM (inactive)	> 82.8 µM (inactive)	> 100 µM (inactive)	> 100 µM (inactive)	81.5 µM (inactive)	> 100 µM (inactive)	> 71.8 µM (inactive)	> 100 µM (inactive)	28.6 µM (inactive)	> 100 µM (inactive)	47.9 µM (inactive)	> 100 µM (inactive)
CCN(CC)CCCNc1ccc([N+](=O)[O-])c2nc3ccc(OC)cc3c(N)c12	> 6.67 µM (inactive)	1.34 µM (inactive)	1.34 µM (inactive)	3.21 µM (inactive)	1.94 µM (inactive)	> 10 µM (inactive)	1.2 µM (inactive)	1.82 µM (inactive)	> 4.17 µM (inactive)	1.92 µM (inactive)	> 10 µM (inactive)	1.75 µM (inactive)	> 10 µM (inactive)	> 5.16 µM (inactive)	2.07 µM (inactive)	> 4.34 µM (inactive)	1.93 µM (inactive)	> 10 µM (inactive)	> 10 µM (inactive)	> 5.58 µM (inactive)
COc1cc2c(/C=C3/C(=O)Nc4cc(C)c(O)cc43)c(Cl)[nH]c2cc1C	4.37 µM (inactive)	0.552 µM (active)	2.03 µM (inactive)	2.75 µM (inactive)	1.86 µM (inactive)	2 µM (inactive)	2.13 µM (inactive)	2.51 µM (inactive)	2.88 µM (inactive)	4.31 µM (inactive)	4.33 µM (inactive)	3.18 µM (inactive)	1.66 µM (inactive)	2.31 µM (inactive)	2.4 µM (inactive)	2.82 µM (inactive)	2.05 µM (inactive)	3.16 µM (inactive)	6.18 µM (inactive)	4.31 µM (inactive)
CC(=O)C1=C(C)N(c2ccc(C)cc2)C2(O)C=CC(=O)C3C(=O)N(c4ccccc4)C(=O)C132 (stereo not given)	15.9 µM (inactive)	3.9 µM (inactive)	23.3 µM (inactive)	23.4 µM (inactive)	2.47 µM (inactive)	25.9 µM (inactive)	29.7 µM (inactive)	29.4 µM (inactive)	54.2 µM (inactive)	20.8 µM (inactive)	55.2 µM (inactive)	22.1 µM (inactive)	20.3 µM (inactive)	15.4 µM (inactive)	15.5 µM (inactive)	25.2 µM (inactive)	24.4 µM (inactive)	14.1 µM (inactive)	17.6 µM (inactive)	11.2 µM (inactive)
COC(=O)c1cc(OC)c(OC)c(OC)c1-c1cc2c(cc1C=O)OCO2	> 10 µM (inactive)	> 10 µM (inactive)	> 10 µM (inactive)	> 10 µM (inactive)	> 10 µM (inactive)	> 10 µM (inactive)	> 10 µM (inactive)	> 10 µM (inactive)	> 10 µM (inactive)	> 10 µM (inactive)	> 10 µM (inactive)	> 10 µM (inactive)	> 10 µM (inactive)	> 10 µM (inactive)	> 10 µM (inactive)	> 10 µM (inactive)	> 10 µM (inactive)	> 10 µM (inactive)	> 10 µM (inactive)	> 10 µM (inactive)
